How the values were obtained:
Details in all cases: dosage 320 g/ha
AMARE [1] = assay: Herbicidal action pre-emergence (PE); assay type: in vivo, Amaranthus retroflexus
VIOTR [2] = assay: Herbicidal action pre-emergence (PE); assay type: in vivo, Viola tricolor
POLCO = assay: Herbicidal action pre-emergence (PE); assay type: in vivo, Polygonum convolvulus
SETVI [3] = assay: Herbicidal action pre-emergence (PE); assay type: in vivo, Setaria viridis
ECHCG = assay: Herbicidal action pre-emergence (PE); assay type: in vivo, Echinochloa crus-galli
MATIN = assay: Herbicidal action pre-emergence (PE); assay type: in vivo, Matricaria inodora
ABUTH = assay: Herbicidal action post-emergence (PO); assay type: in vivo, Abutilon theophrasti
VIOTR [4] = assay: Herbicidal action post-emergence (PO); assay type: in vivo, Viola tricolor
AMARE [5] = assay: Herbicidal action post-emergence (PO); assay type: in vivo, Amaranthus retroflexus
PHBPU = assay: Herbicidal action post-emergence (PO); assay type: in vivo, Pharbitis purpurea
SETVI [6] = assay: Herbicidal action post-emergence (PO); assay type: in vivo, Setaria viridis

Structure (SMILES)	AMARE (AMARE [1])	VIOTR (VIOTR [2])	POLCO (POLCO)	SETVI (SETVI [3])	ECHCG (ECHCG)	MATIN (MATIN)	ABUTH (ABUTH)	VIOTR (VIOTR [4])	AMARE (AMARE [5])	PHBPU (PHBPU)	SETVI (SETVI [6])
O=C(CCl)Nc1nsc2c(=O)n(CC3CCCCC3)cnc12 [Example I-56]	100	100	100	100	100	90					
CC(=O)Nc1nsc2c(=O)n(CC3CCCCC3)cnc12 [Example I-55]	100	100	100	100	100	100	100	100	100		
O=C(Nc1nsc2c(=O)n(Cc3ccc(F)cc3F)cnc12)C(F)(Cl)C(F)(F)F (stereo not shown) [Example I-77]	100	100	100	100	80	100					
Nc1nsc2c1NCN(CC1CCCCO1)C2=O (stereo not shown) [Example I-43]	100	100	100	90	100	90					
Nc1nsc2c1NCN(CC1CCCCC1)C2=O [Example I-61]	100	100	100	100	100	100	100	100	100	90	100
COCC(=O)Nc1nsc2c(=O)n(CC3CCCCC3)cnc12 [Example I-69]	100	100	100	100	100	100	90	100	100	100	100
CCCC(=O)Nc1nsc2c(=O)n(CC3CCCCC3)cnc12 [Example I-45]	100	100	100	100	100	100	100	90	100		
CC(c1ccccc1)n1cnc2c(NC(=O)C3CC3)nsc2c1=O (stereo not shown) [Example I-40]							100	100	100	100	90
Nc1nsc2c1NCN(Cc1ccc(F)cc1F)C2=O [Example I-42]	100	100	100	100	100	100	80	100	100	100	100
O=C(Nc1nsc2c(=O)n(CC3CCCCC3)cnc12)C(F)(F)F [Example I-53]	100	100	100	100	100	100	100	100	100	100	100
Nc1nsc2c(=O)n(CC3CCCCC3)cnc12 [Example I-17]	100	100	100	100	100	100	90	100	100	100	100
Nc1nsc2c1NCN(CC1CCCCCC1)C2=O [Example I-59, 3-amino-6-(cycloheptylmethyl)-4,5-dihydroisothiazolo[4,5-d]pyrimidin-7-one]	100	100	100	100	100	100	100	100	100	100	100
Nc1nsc2c(=O)n(CC3CCCCCC3)cnc12 [Example I-31]	100	100	100	100	90	100					
O=C(CC(F)(F)F)Nc1nsc2c(=O)n(Cc3ccc(F)cc3F)cnc12 [Example I-82]	100	100	100	100	100	100					
O=C(Nc1nsc2c(=O)n(CC3CCCCC3)cnc12)C(F)(Cl)C(F)(F)F (stereo not shown) [Example I-67]	100	100	100	100	100	100					
CCC(=O)Nc1nsc2c(=O)n(Cc3ccc(F)cc3F)cnc12 [Example I-84]	100	100	100	100	100	100	100	100	100	100	100
O=C(Nc1nsc2c(=O)n(CC3CCCCC3)cnc12)C(F)(F)C(F)(F)Cl [Example I-68]	100	100	100	100	100	100	100	100	100	100	100
O=C(Nc1nsc2c(=O)n(Cc3ccc(F)cc3F)cnc12)C(F)(F)C(F)(F)F [Example I-78]	100	100	100	100	100	100	80	100	100	100	100
COC(=O)CCC(=O)Nc1nsc2c(=O)n(CC3CCCCC3)cnc12 [Example I-72]	100	100	100	100	100	100	100	90	100	100	90
Nc1nsc2c1NCN(CC1CCCC1)C2=O [Example I-63]	100	100	100	100	100	100	100	100	100		
Cc1nn(CC2CCCCC2)c(=O)c2snc(N)c12 [Example I-75, 3-amino-6-(cyclohexylmethyl)-4-methyl-isothiazolo[4,5-d]pyridazin-7-one]	100	90	90	100	90	90					
COC(=O)C(=O)Nc1nsc2c(=O)n(Cc3ccc(F)cc3F)cnc12 [Example I-81]	100	100	100	90	100	100					
O=C(Nc1nsc2c(=O)n(CC3CCCCC3)cnc12)C(F)(F)C(F)(F)C(F)(F)F [Example I-58]	100	100	90	100	100	90	90	100	100		
COCC(=O)Nc1nsc2c(=O)n(Cc3ccc(F)cc3F)cnc12 [Example I-83]	100	100	90	100	100	100					
O=C(Nc1nsc2c(=O)n(CC3CCCCC3)cnc12)C(F)(F)C(F)(F)F [Example I-57]	100	100	100	100	100	100	100	100	100		
Nc1nsc2c1NCN(Cc1ccc(F)cc1)C2=O [Example I-64]	100	100	90	100	100	100	90	80	100		
CCC(=O)Nc1nsc2c(=O)n(CC3CCCCC3)cnc12 [Example I-54]	100	100	100	100	100	100	100	90	100		
O=C(Nc1nsc2c(=O)n(Cc3ccc(F)cc3F)cnc12)C(F)(F)C(F)(F)Cl [Example I-76]	100	100	100	100	90	100	80	100	100		
O=C(CC(F)(F)F)Nc1nsc2c(=O)n(CC3CCCCC3)cnc12 [Example I-73]	100	100	100	100	100	100	100	100	100		

— patent publication US20200123175A1, “NOVEL ISOTHIAZOLO-BASED BICYCLES, PROCESSES FOR THEIR PREPARATION AND THEIR USE AS HERBICIDES AND/OR PLANT GROWTH REGULATORS” (Bayer CropScience Aktiengesellschaft, priority 2017, published 2020)
